In brackets after ≈: the same amount, converted by molar mass.
Legend:
MAC16 = experiment: In vitro concentration required to inhibit MAC 16 cells; assay type: functional, cell-based; details: Mus musculus
HRT-18 cell line = experiment: In vitro concentration required to inhibit HRT18 cells; assay type: functional, cell-based; details: Homo sapiens
MAC15A = experiment: In vitro concentration required to inhibit MAC 15 A cells; assay type: functional, cell-based; details: Mus musculus
HT-29 = experiment: In vitro concentration required to inhibit HT-29 cells; assay type: functional, cell-based; details: Homo sapiens
K562 = experiment: In vitro concentration required to inhibit K562 cells; assay type: functional, cell-based; details: Homo sapiens
HCT-8 = experiment: In vitro concentration required to inhibit HCT18 cells; assay type: functional, cell-based; details: Homo sapiens
HCLO cell line = experiment: In vitro concentration required to inhibit HCLO cells; assay type: functional, cell-based; details: Homo sapiens
MAC26 = experiment: In vitro concentration required to inhibit MAC 26 cells; assay type: functional, cell-based; details: Mus musculus
DLD-1 = experiment: In vitro concentration required to inhibit DLD1 cells; assay type: functional, cell-based; details: Homo sapiens
Mus musculus = experiment: In vivo antitumor activity in murine tumors at a dose of 200 mg/Kg; assay type: functional

O=C(O)Cc1cccc2c(=O)cc(-c3ccccc3)oc12 [MITOFLAXONE]
IC50 (MAC16): 180 µg/mL (≈ 642 µM)
IC50 (HRT-18 cell line): 95 µg/mL (≈ 339 µM)
IC50 (MAC15A): 150 µg/mL (≈ 535 µM)
IC50 (HT-29): 390 µg/mL (≈ 1390 µM)
IC50 (K562): 310 µg/mL (≈ 1110 µM)
IC50 (HCT-8): 245 µg/mL (≈ 874 µM)
IC50 (HCLO cell line): > 500 µg/mL
IC50 (MAC26): 208 µg/mL (≈ 742 µM)
IC50 (DLD-1): > 500 µg/mL
inhibition in vivo at 200 mg/kg (Mus musculus): 83%
